# Measured values taken from paper PMC5795052 (Open Biology, 2018).
# Columns and labels:
# ACKR3 [1] = test: β-arrestin 2 recruitment assay (PRESTO-Tango) for ACKR3 co-expressed with pcDNA3 or HA-AVPR1A; format: cell-based, human; conditions: cells co-expressing ACKR3-Tango and AVPR1A, TM peptides 10 µM, 30 min at 37°C, figure 9h; for effect of TM peptides on efficacy of aVP to induce β-arrestin 2 recruitment to ACKR3-Tango: then aVP, versus vehicle
# Description: The human AVPR1A cDNA sequence was from the AVPR1A-TANGO plasmid (Addgene, plasmid #66225). The hRLuc cDNA was PCR-amplified from pIRES-Myc-hCXCR4-Rluc, which was generously provided by Dr Michel Bouvier, with primers carrying the AgeI and XbaI sites at either end, respectively, and ligated with the C-terminus of AVPR1A at the corresponding sites. Human CXCR4 and ACKR3 cDNAs were from the CXCR4-TANGO (Addgene, plasmid #66262) and the ACKR3-TANGO (Addgene, plasmid #66265) plasmids. The EYFP cDNA was PCR-amplified from pEYFP with primers harbouring AgeI and XbaI sites and ligated with the C-terminus of ACKR3. All plasmids were confirmed by sequencing.
# (§1) hVSMCs (primary aortic smooth muscle cells, ATCC PCS-100-012), A7r5 cells (ATCC-CRL-1444) and HEK293T cells (ATCC-CRL-11268) were purchased from American Type Culture Collection. hVSMCs were cultured in vascular basal media (ATCC PCS-100-030) supplemented with the vascular smooth muscle growth kit (ATCC PCS-100-042), containing 100 U ml^−1 penicillin and 100 µg ml^−1 streptomycin. hVSMCs were used between passages 2–5. HEK293T and A7r5 cells were cultured in high-glucose Dulbecco's Modified Eagle's Medium containing 10 mg ml^−1 sodium pyruvate, 2 mM L-glutamine, 10% (vol/vol) FBS, 1× non-essential amino acids, 100 U ml^−1 penicillin and 100 µg ml^−1 streptomycin. The HTLA cell line, a HEK293 cell line stably expressing a tTA-dependent luciferase reporter and a β-arrestin 2–TEV fusion gene were generously provided by the laboratory of Dr Bryan Roth and maintained in high-glucose Dulbecco's Modified Eagle's Medium supplemented with 10% (vol/vol) FBS, 1× non-essential amino acids, 100 U ml^−1 penicillin, 100 µg ml^−1 streptomycin, 50 µg ml^−1 hygromycin B and 2 µg ml^−1 puromycin. All cells were cultured in a humidified environment at 37°C, 5% CO2.
# The PRESTO-Tango (parallel receptorome expression and screening via transcriptional output, with transcriptional activation following arrestin translocation) assay was performed as recently described. The Tango plasmids were a gift from Dr Bryan Roth (all from Addgene). HTLA cells (2.5 × 10^5 per well) were seeded in a six-well plate and transfected with 1.5 µg of the Tango plasmids using Lipofectamine 3000 (ThermoScientific). The following day, transfected HTLA cells (1 × 10^5 cells per well) were plated onto poly-L-lysine precoated 96-well microplates and allowed to attach to the plate surface for at least 4 h prior to treatment. Proteins used for treatment were prepared in twice the final concentration in culture media, added at a 1 : 1 vol/vol ratio and incubated overnight at 37°C, 5% CO2 in a humidified environment. The following morning, media were removed from cell culture plates and replaced with a 100 µl 1 : 5 mixture of Bright-Glo (Promega) and 1× HBSS, 20 mM HEPES solution. Plates were then incubated at room temperature before measuring luminescence on a Biotek Synergy II plate reader.
# [2] = test system: aVP-induced IP3 production in hVSMC; test: IP3 production (ELISA) in hVSMC upon aVP stimulation; format: cell-based, human; conditions: TM peptides 10 µM, 30 min at 37°C, then aVP 1 µM, 5 min; n = 4; figure 8c
# Protocol: as §1
# ACKR3 and CXCR4 siRNA gene silencing was performed as described previously. In brief, cells were grown in 2 ml Accell siRNA delivery media per well (Dharmacon) in six-well plates (Nunc). Commercially available Accell ACKR3 and CXCR4 siRNA were reconstituted with 1× siRNA buffer to a stock concentration of 100 µM. Cells were then transfected with 1 µM ACKR3/CXCR4 siRNA and incubated for 72 h at 37°C, 5% CO2. Accell NT-siRNA pool was used as a negative control. After 72 h, cells were assayed for receptor cell surface expression and used for signalling experiments.
# IP3 enzyme-linked immunosorbent assays were purchased from LS Bio and performed as per the manufacturer's protocol (LS BIO F10644). In brief, hVSMCs were grown to confluency in six-well dishes (Nunc) and then treated as described in the Results section. Cells were then washed once with cold PBS, 225 µl of cold PBS was added to each well and cells were lysed by ultrasonication. The cell lysate was centrifuged for 10 min at 4°C at 1500g to remove cellular debris. The total protein concentration in the supernatant was determined with the Bio-Rad DC Protein Assay as per the manufacturer's protocol (Bio-Rad 500-0116). Equivalent amounts of total protein were added to the ELISA strips diluted in the provided sample diluent (1 : 5 and 1 : 10). The assay was then completed as per the manufacturer's protocol. Optical densities were read on a Biotek Synergy II microplate reader (absorbance at 450 nm), and IP3 concentrations were extrapolated from the standard curve.
# ACKR3 [3] = conditions: ref [21]; cited from earlier work
# Protocol: The effects of the TM peptide analogues of ACKR3 on aVP-induced recruitment of β-arrestin 2 to ACKR3-Tango in cells co-expressing ACKR3-Tango and AVPR1A are shown in figure 9h.
# ACKR3 : AVPR1A heteromer = test: PLA signals for ACKR3 : AVPR1A interactions in hVSMC; format: cell-based, human; conditions: 10 µM, 30 min at 37°C; figure 8b; *p < 0.05 versus vehicle
# Protocol: as §1
# (§2) PLAs were performed as described in detail previously. In brief, cells were grown and fixed on eight-well chamber slides (Nunc). […]
# CXCR4 : AVPR1A heteromer = test: PLA signals for CXCR4 : AVPR1A interactions in hVSMC; format: cell-based, human; conditions: 10 µM, 30 min at 37°C; figure 8b
# Protocol: as §1, §2
Sequence,effect of TM peptides on efficacy of aVP to induce β-arrestin 2 recruitment to ACKR3-Tango (ACKR3 [1]),effect of TM peptides on aVP-induced IP3 production [2],behaviour in β-arrestin 2 recruitment to ACKR3-Tango upon agonist stimulation (ACKR3 [3]),inhibition of aVP-induced β-arrestin 2 recruitment to ACKR3-Tango (comparison TM2/TM4) (ACKR3 [1]),mode of antagonism of aVP-induced β-arrestin 2 recruitment to ACKR3-Tango (ACKR3 [1]),effect of TM peptides on PLA signals for AVPR1A : ACKR3 interactions (ACKR3 : AVPR1A heteromer),effect of TM peptides on PLA signals for AVPR1A : CXCR4 interactions (CXCR4 : AVPR1A heteromer)
"DDDLHVTQCLSLVHCCVNPVLYSFIN [TM7, peptide analogue of transmembrane helix 7 (TM7) of ACKR3, described previously [21]]",did not show significant effects,ineffective,inactive,–,–,–,–
"VVCILWLLAFCVSLPDTYYLDD [TM4, peptide analogue of transmembrane helix 4 (TM4) of ACKR3, described previously [21]]",significantly reduced the efficacy of aVP to induce β-arrestin 2 recruitment,inhibited aVP-induced IP3 production,"behaviour similar to the TM2 peptide, but this effect did not reach statistical significance",inhibited aVP-induced β-arrestin 2 recruitment to ACKR3-Tango with comparable efficacy,non-competitive antagonists,reduced PLA signals for AVPR1A : ACKR3 interactions,did not increase AVPR1A : CXCR4 interactions
"YILNLAIADLWVVLTIPVWVVDDD [TM2, peptide analogue of transmembrane helix 2 (TM2) of ACKR3, described previously [21]]",significantly reduced the efficacy of aVP to induce β-arrestin 2 recruitment,inhibited aVP-induced IP3 production,competitive antagonist,inhibited aVP-induced β-arrestin 2 recruitment to ACKR3-Tango with comparable efficacy,non-competitive antagonists,reduced PLA signals for AVPR1A : ACKR3 interactions,did not increase AVPR1A : CXCR4 interactions
